Experimental data published in ChEMBL document CHEMBL3046749, “Synthesis and antimicrobial activity of novel bis-azaphenothiazines” (2013).
In brackets after ≈: the same amount, converted by molar mass. Activity calls are given as the source filed them. No cut-off for these calls is given here.

Experiments:
Type in all cases: functional
Pseudomonas aeruginosa [1] = experiment: Antibacterial activity against Pseudomonas aeruginosa MTCC 424 after 16 hr by cup-plate method; conditions: MTCC 424, 16 h
Escherichia coli [2] = experiment: Antibacterial activity against Escherichia coli MTCC 443 after 16 hr by cup-plate method; conditions: MTCC 443, 16 h
[3] = test system: Staphylococcus epidermidis; experiment: Antibacterial activity against Staphylococcus epidermidis MTCC 435 after 16 hr by cup-plate method; conditions: MTCC 435, 16 h
Bacillus subtilis [4] = experiment: Antibacterial activity against Bacillus subtilis MTCC 441 after 16 hr by cup-plate method; conditions: MTCC 441, 16 h
Staphylococcus aureus [5] = experiment: Antibacterial activity against Staphylococcus aureus MTCC 096 after 16 hr by cup-plate method; conditions: MTCC 096, 16 h
Klebsiella pneumoniae [6] = experiment: Antibacterial activity against Klebsiella pneumoniae MTCC 432 at 100 ug/ml after 16 to 18 hr by cup-plate method; conditions: read-out: IZ
Salmonella typhi [7] = experiment: Antibacterial activity against Salmonella enterica subsp. enterica serovar Typhi MTCC 733 at 100 ug/ml after 16 to 18 hr by cup-plate method; conditions: read-out: IZ
Pseudomonas aeruginosa [8] = experiment: Antibacterial activity against Pseudomonas aeruginosa MTCC 424 at 100 ug/ml after 16 to 18 hr by cup-plate method; conditions: read-out: IZ
[9] = test system: Staphylococcus epidermidis; experiment: Antibacterial activity against Staphylococcus epidermidis MTCC 435 at 100 ug/ml after 16 to 18 hr by cup-plate method; conditions: read-out: IZ
Bacillus subtilis [10] = experiment: Antibacterial activity against Bacillus subtilis MTCC 441 at 100 ug/ml after 16 to 18 hr by cup-plate method; conditions: read-out: IZ
Staphylococcus aureus [11] = experiment: Antibacterial activity against Staphylococcus aureus MTCC 096 at 100 ug/ml after 16 to 18 hr by cup-plate method; conditions: read-out: IZ
Klebsiella pneumoniae [12] = experiment: Antibacterial activity against Klebsiella pneumoniae MTCC 432 after 16 hr by cup-plate method; conditions: MTCC 432, 16 h
Salmonella typhi [13] = experiment: Antibacterial activity against Salmonella enterica subsp. enterica serovar Typhi MTCC 733 after 16 hr by cup-plate method; conditions: MTCC 733, 16 h
Candida albicans [14] = experiment: Antifungal activity against Candida albicans MTCC 227 at 100 ug/ml after 28 to 30 hr by cup-plate method; conditions: for zone of inhibition at 100 µg/mL: read-out: IZ
Aspergillus flavus [15] = experiment: Antifungal activity against Aspergillus flavus MTCC 277 at 100 ug/ml after 28 to 30 hr by cup-plate method; conditions: for zone of inhibition at 100 µg/mL: read-out: IZ
Aspergillus fumigatus [16] = experiment: Antifungal activity against Aspergillus fumigatus MTCC 343 at 100 ug/ml after 28 to 30 hr by cup-plate method; conditions: for zone of inhibition at 100 µg/mL: read-out: IZ
Aspergillus niger [17] = experiment: Antifungal activity against Aspergillus niger MTCC 282 at 100 ug/ml after 28 to 30 hr by cup-plate method; conditions: for zone of inhibition at 100 µg/mL: read-out: IZ
Escherichia coli [18] = experiment: Antibacterial activity against Escherichia coli MTCC 443 at 100 ug/ml after 16 to 18 hr by cup-plate method; conditions: read-out: IZ
Candida albicans [19] = experiment: Antifungal activity against Candida albicans MTCC 227 after 28 to 30 hr by cup-plate method
Aspergillus fumigatus [20] = experiment: Antifungal activity against Aspergillus fumigatus MTCC 343 after 28 to 30 hr by cup-plate method
Aspergillus flavus [21] = experiment: Antifungal activity against Aspergillus flavus MTCC 277 after 28 to 30 hr by cup-plate method
Aspergillus niger [22] = experiment: Antifungal activity against Aspergillus niger MTCC 282 after 28 to 30 hr by cup-plate method

SMILES	MIC (Pseudomonas aeruginosa [1])	MIC (Escherichia coli [2])	MIC [3]	MIC (Bacillus subtilis [4])	MIC (Staphylococcus aureus [5])	zone of inhibition at 100 µg/mL (Klebsiella pneumoniae [6])	zone of inhibition at 100 µg/mL (Salmonella typhi [7])	zone of inhibition at 100 µg/mL (Pseudomonas aeruginosa [8])	zone of inhibition at 100 µg/mL [9]	zone of inhibition at 100 µg/mL (Bacillus subtilis [10])	zone of inhibition at 100 µg/mL (Staphylococcus aureus [11])	MIC (Klebsiella pneumoniae [12])	zone of inhibition at 100 µg/mL (Candida albicans [14])	zone of inhibition at 100 µg/mL (Aspergillus flavus [15])	zone of inhibition at 100 µg/mL (Escherichia coli [18])	MIC (Candida albicans [19])	MIC (Aspergillus fumigatus [20])	MIC (Aspergillus flavus [21])	MIC (Aspergillus niger [22])	zone of inhibition at 100 µg/mL (Aspergillus fumigatus [16])	other results
O=C(O)c1cn(C2CC2)c2cc(N3CCNCC3)c(F)cc2c1=O [CIPROFLOXACIN]	6.25 µg/mL (≈ 18.9 µM)	6.25 µg/mL (≈ 18.9 µM)	6.25 µg/mL (≈ 18.9 µM)	6.25 µg/mL (≈ 18.9 µM)	6.25 µg/mL (≈ 18.9 µM)	17 mm	19 mm	18 mm	16 mm	18 mm	19 mm	6.25 µg/mL (≈ 18.9 µM)	–	–	–	–	–	–	–	–	MIC (Salmonella typhi [13]): 6.25 mM (≈ 2070 µg/mL)
CC(=O)Nc1ccccc1Sc1ncccc1[N+](=O)[O-]	12.5 µg/mL (≈ 43.2 µM)	> 50 µg/mL	25 µg/mL (≈ 86.4 µM)	25 µg/mL (≈ 86.4 µM)	> 50 µg/mL	11 mm	12 mm	12 mm	11 mm	12 mm	11 mm	50 µg/mL (≈ 173 µM)	12 mm	12 mm	10 mm	12.5 µg/mL (≈ 43.2 µM)	> 50 µg/mL	12.5 µg/mL (≈ 43.2 µM)	> 50 µg/mL	–	inhibition zone (IZ) (Aspergillus fumigatus [16]): inactive; inhibition zone (IZ) (Aspergillus niger [17]): inactive
Clc1ccc2c(c1)Sc1cccnc1N2CCCCCCN1c2ccc(Cl)cc2Sc2cccnc21	25 µg/mL (≈ 45.3 µM)	50 µg/mL (≈ 90.7 µM)	> 50 µg/mL	25 µg/mL (≈ 45.3 µM)	25 µg/mL (≈ 45.3 µM)	11 mm	12 mm	12 mm	10 mm	12 mm	12 mm	50 µg/mL (≈ 90.7 µM)	12 mm	10 mm	11 mm	12.5 µg/mL (≈ 22.7 µM)	12.5 µg/mL (≈ 22.7 µM)	> 50 µg/mL	> 50 µg/mL	12 mm	inhibition zone (IZ) (Aspergillus niger [17]): inactive
CC(=O)Nc1ccc(F)cc1Sc1ncccc1[N+](=O)[O-]	6.25 µg/mL (≈ 20.3 µM)	6.25 µg/mL (≈ 20.3 µM)	25 µg/mL (≈ 81.4 µM)	25 µg/mL (≈ 81.4 µM)	12.5 µg/mL (≈ 40.7 µM)	11 mm	12 mm	14 mm	12 mm	12 mm	13 mm	> 50 µg/mL	14 mm	10 mm	14 mm	6.25 µg/mL (≈ 20.3 µM)	6.25 µg/mL (≈ 20.3 µM)	> 50 µg/mL	6.25 µg/mL (≈ 20.3 µM)	16 mm	zone of inhibition at 100 µg/mL (Aspergillus niger [17]): 18 mm
c1ccc2c(c1)Sc1cccnc1N2CCCCCCN1c2ccccc2Sc2cccnc21	50 µg/mL (≈ 104 µM)	12.5 µg/mL (≈ 25.9 µM)	6.25 µg/mL (≈ 12.9 µM)	25 µg/mL (≈ 51.8 µM)	6.25 µg/mL (≈ 12.9 µM)	12 mm	12 mm	11 mm	13 mm	12 mm	13 mm	25 µg/mL (≈ 51.8 µM)	12 mm	12 mm	12 mm	12.5 µg/mL (≈ 25.9 µM)	> 50 µg/mL	25 µg/mL (≈ 51.8 µM)	25 µg/mL (≈ 51.8 µM)	10 mm	zone of inhibition at 100 µg/mL (Aspergillus niger [17]): 11 mm
Clc1ccc2c(c1)Sc1cccnc1N2CCCCN1c2ccc(Cl)cc2Sc2cccnc21	50 µg/mL (≈ 95.5 µM)	12.5 µg/mL (≈ 23.9 µM)	6.25 µg/mL (≈ 11.9 µM)	50 µg/mL (≈ 95.5 µM)	25 µg/mL (≈ 47.8 µM)	11 mm	12 mm	11 mm	12 mm	11 mm	12 mm	> 50 µg/mL	11 mm	12 mm	12 mm	25 µg/mL (≈ 47.8 µM)	50 µg/mL (≈ 95.5 µM)	12.5 µg/mL (≈ 23.9 µM)	> 50 µg/mL	11 mm	zone of inhibition at 100 µg/mL (Aspergillus niger [17]): 10 mm
c1ccc2c(c1)Sc1cccnc1N2CCCCN1c2ccccc2Sc2cccnc21	6.25 µg/mL (≈ 13.7 µM)	> 50 µg/mL	12.5 µg/mL (≈ 27.5 µM)	> 50 µg/mL	50 µg/mL (≈ 110 µM)	12 mm	12 mm	13 mm	12 mm	10 mm	11 mm	25 µg/mL (≈ 55 µM)	–	–	11 mm	> 50 µg/mL	> 50 µg/mL	> 50 µg/mL	> 50 µg/mL	–	inhibition zone (IZ) (Candida albicans [14]): inactive; inhibition zone (IZ) (Aspergillus flavus [15]): inactive; inhibition zone (IZ) (Aspergillus fumigatus [16]): inactive; inhibition zone (IZ) (Aspergillus niger [17]): inactive
C(=C\CN1c2ccccc2Sc2cccnc21)/CN1c2ccccc2Sc2cccnc21	12.5 µg/mL (≈ 27.6 µM)	50 µg/mL (≈ 110 µM)	> 50 µg/mL	> 50 µg/mL	12.5 µg/mL (≈ 27.6 µM)	11 mm	11 mm	12 mm	10 mm	10 mm	12 mm	50 µg/mL (≈ 110 µM)	12 mm	12 mm	11 mm	12.5 µg/mL (≈ 27.6 µM)	6.25 µg/mL (≈ 13.8 µM)	12.5 µg/mL (≈ 27.6 µM)	12.5 µg/mL (≈ 27.6 µM)	13 mm	zone of inhibition at 100 µg/mL (Aspergillus niger [17]): 12 mm
Brc1ccc2c(c1)Sc1cccnc1N2CCCCN1c2ccc(Br)cc2Sc2cccnc21	12.5 µg/mL (≈ 20.4 µM)	12.5 µg/mL (≈ 20.4 µM)	25 µg/mL (≈ 40.8 µM)	50 µg/mL (≈ 81.6 µM)	12.5 µg/mL (≈ 20.4 µM)	11 mm	10 mm	12 mm	11 mm	11 mm	12 mm	50 µg/mL (≈ 81.6 µM)	11 mm	10 mm	12 mm	50 µg/mL (≈ 81.6 µM)	12.5 µg/mL (≈ 20.4 µM)	> 50 µg/mL	50 µg/mL (≈ 81.6 µM)	12 mm	zone of inhibition at 100 µg/mL (Aspergillus niger [17]): 11 mm
Fc1ccc2c(c1)Sc1cccnc1N2CCCCN1c2ccc(F)cc2Sc2cccnc21	> 50 µg/mL	25 µg/mL (≈ 51 µM)	12.5 µg/mL (≈ 25.5 µM)	12.5 µg/mL (≈ 25.5 µM)	25 µg/mL (≈ 51 µM)	11 mm	12 mm	10 mm	12 mm	12 mm	11 mm	50 µg/mL (≈ 102 µM)	10 mm	12 mm	11 mm	> 50 µg/mL	> 50 µg/mL	25 µg/mL (≈ 51 µM)	50 µg/mL (≈ 102 µM)	10 mm	zone of inhibition at 100 µg/mL (Aspergillus niger [17]): 11 mm
